We go through ten compounds from PubChem BioAssay AID652269 (Broad Institute, 2013).

The structures appear in SMILES notation. Values joined by “and” are separate entries in the source; they are usually repeats but may differ in a detail not shown here. Equal entries are not always repeated. Active and inactive are the calls of the source.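 Rule for the calls: active = median TrxR activity remaining at the top dose below 80%; inactive = the rest.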

The first assay concerns the target Thioredoxin reductase 1, cytoplasmic (Rattus norvegicus) (UniProt O89049). Briefly: rat TrxR-driven insulin reduction blockade – biochemical, rat TrxR1, insulin turbidity, dry powder, counter-screen for PDI inhibitor project, dose response (AID 652269). The following applies: Trx/TrxR/NADPH insulin reduction, turbidity OD650.
As to `O=C(Nc1ccccc1)C1(CCOc2ccccc2)CCN(Cc2ccc(O)c(Cl)c2)CC1`, the outcome was inactive.

Staying with this assay, now noted: Trx/TrxR/NADPH insulin reduction, turbidity OD650; at 33.3 µM.
`CCOC(=O)C1(CCOc2ccccc2)CCN(C(=O)c2ccc(O)c(Cl)c2)CC1`: the TrxR activity remaining % (stronger effect = lower value) is 100% (inactive).

As for `C/C1=C\C[C@H](OC(=O)c2ccc(O)cc2)/C(C)=C/[C@@H](O)C(C)(C)CCC1`, the TrxR activity remaining % (stronger effect = lower value) was 97% (inactive).

As to `CCOC(=O)C1(CCOc2ccccc2)CCN(Cc2ccc(OC)c(Cl)c2)CC1`, the TrxR activity remaining % (stronger effect = lower value) was 100% (inactive).

Turning to `CCOC(=O)C1(CCOc2ccccc2)CCN(Cc2ccc(O)cc2)CC1`, the TrxR activity remaining % (stronger effect = lower value) is 100% (inactive).

Turning to `CC(C)(C)OC(=O)C1(CCOc2ccccc2)CCN(Cc2ccc(O)c(Cl)c2)CC1`, the TrxR activity remaining % (stronger effect = lower value) was 100% (inactive).

`O=C(NC1CCCC1)C1(CCOc2ccccc2)CCN(Cc2ccc(O)c(Cl)c2)CC1`: the TrxR activity remaining % (stronger effect = lower value) is 100% (inactive).

`CC(C)OC(=O)C1(CCOc2ccccc2)CCN(Cc2ccc(O)c(Cl)c2)CC1`: the TrxR activity remaining % (stronger effect = lower value) was 100% (inactive).

In the case of `CCOC(=O)C1(CCOc2ccccc2)CCN(Cc2ccc(O)c(Cl)c2)CC1`, the TrxR activity remaining % (stronger effect = lower value) was 100% (inactive) and 94% (inactive).

Turning to `CCOC(=O)c1c(CN2CCN(CCO)CC2)n(-c2ccccc2)c2cc(Br)c(O)cc12`, the TrxR activity remaining % (stronger effect = lower value) was 100% (inactive).
